Data on 8 molecules can be found in article PMC6155403, “Camellia sinensis L. Extract and Its Potential Beneficial Effects in Antioxidant, Anti-Inflammatory, Anti-Hepatotoxic, and Anti-Tyrosinase Activities” (Molecules : A Journal of Synthetic Chemistry and Natural …, 2017).

Test [1] can be described thus: DPPH free radical scavenging assay. To be noted: 30 min, room temperature (30 °C), 515 nm. (The DPPH test is a chemical assay of radical scavenging.)
Method: The DPPH method [36] was used to determine the free radical-scavenging potential of each sample. The test sample (0.1 mL) was added to 3.9 mL of DPPH solution (6 × 10^−5 M). The absorbance was measured at 515 nm after 30 min of the reaction at room temperature (30 °C). The antiradical activity was calculated as a percentage of DPPH decolouration versus a control. The results were expressed as the concentration of the FTE that scavenged 50% of the free radicals from the reaction mixture (SC50). The percent DPPH scavenging effect was calculated by using following equation [37]: (1) DPPHscavengingeffect(%)orPercentinhibition=[Ao - At/Ao]×100 where Ao is the absorbance of the control reaction and At is the absorbance in the presence of a test or standard sample. AsA, BHA, BHT, and tocopherol were used as positive references.
Another test concerns the target mushroom tyrosinase. The test is described as follows: Mushroom tyrosinase inhibition in vitro (dopachrome method, L-DOPA oxidation). It is filed as biochemical. To be noted: mean ± SEM; L-DOPA substrate, pH 6.8, 25 °C. On the procedure:
Briefly, 120 µL of 20 mM phosphate buffer (pH 6.8), 40 µL of 48 units/mL mushroom tyrosinase, and 20 µL of various sample concentrations with or without enzyme were placed in the wells of a 96-well microplate. After pre-incubation at 25 °C for 10 min, 20 µL of 0.85 mM L-DOPA was added, and the plate was subsequently incubated at 25 °C for 20 min. The amount of dopachrome was measured at 492 nm in an ELISA plate reader (Anthos 2010, Anthos Labtec Instruments GmbH, Wals, Austria). The extent of inhibition by the test samples was expressed as the percentage of concentration necessary to achieve 50% inhibition (IC50).

Test [2] in a line: Chelation of ferrous metal ions (ferrozine-Fe2+ complex formation). The note with it: mean ± SD; 10 min, 30 °C, 562 nm. On the procedure:
The method of Gülçin et al. was followed. The reaction mixture, containing different concentrations of each sample, FeCl2 (2 mM), and ferrozine (1.5 mM), was adjusted to a total volume of 4 mL with absolute methanol, shaken well, and incubated for 10 min at room temperature (30 °C). The absorbance of the mixture was measured at 562 nm against a blank. EDTA was used as the positive reference. The percent inhibition of ferrozine-Fe^2+ complex formation was calculated against a control. The results were expressed as the concentration of the FTE that chelated 50% of metal ions (IC50).

Each structure is given as a SMILES string.

Regarding `Cc1c(C)c2c(c(C)c1O)CCC(C)(CCCC(C)CCCC(C)CCCC(C)C)O2` (racemic) [Tocopherol, DL-α-tocopherol], in test [1], the “SC50 (50% inhibition of the DPPH scavenging effect)” value was 0.196 ± 0.005 moles of tested compound/mole DPPH.
Same read-out and setting: to `O=C1O[C@H]([C@@H](O)CO)C(O)=C1O` [AsA, ascorbic acid] belongs 0.209 ± 0.006 moles of tested compound/mole DPPH.
Turning to `COc1ccc(O)c(C(C)(C)C)c1` [BHA, butylated hydroxyanisole], in test [1], the “SC50 (50% inhibition of the DPPH scavenging effect)” value is on record as 0.184 ± 0.011 moles of tested compound/mole DPPH.
Same read-out and setting: to `Cc1cc(C(C)(C)C)c(O)c(C(C)(C)C)c1` [BHT, butylated hydroxytoluene] belongs 0.224 ± 0.005 moles of tested compound/mole DPPH.
Turning to `O=C(O[C@@H]1Cc2c(O)cc(O)cc2O[C@@H]1c1ccc(O)c(O)c1)c1cc(O)c(O)c(O)c1` [ECG, (−)-epicatechin-3-gallate], at mushroom tyrosinase, the “Anti-tyrosinase IC50” value is 76.50 ± 1.50 µg/mL.
As for `O=C(O)CN(CCN(CC(=O)O)CC(=O)O)CC(=O)O` [EDTA, ethylenediaminetetraacetic acid], in test [2], the “Iron(II)-chelating IC50” value is 10 ± 0 µg/mL.
For the molecule `Oc1cc(O)c2c(c1)O[C@H](c1cc(O)c(O)c(O)c1)[C@H](O)C2` [EGC, (−)-epigallocatechin], at mushroom tyrosinase, the “Anti-tyrosinase IC50” value turned out to be 110.00 ± 0.00 µg/mL.
Regarding `O=C(O[C@@H]1Cc2c(O)cc(O)cc2O[C@@H]1c1cc(O)c(O)c(O)c1)c1cc(O)c(O)c(O)c1` [EGCG, (−)-epigallocatechin-3-gallate], the “Anti-tyrosinase IC50” value on mushroom tyrosinase was determined as 234.00 ± 6.00 µg/mL.
